Data: patent US9499519B2, “Fused pyrimidine compounds and use thereof” (Medivation Technologies, Inc., priority 2012, dated 2016)
Where two headings read alike, the source gives them in different places.

Experiments:
[1] = tested on: Akt phosphorylation induced by IGF-1R; assay: Western blot analysis of Akt phosphorylation induced by IGF-1 in HT-29 cells; format: cell-based, Human; conditions: for Levels of phosphorylated AKT in treated cells (pAKT/actin): HT-29 cells, IGF-1; for p-AKT relative to levels with 0.1 nM compound: Table B2 lower part; for Normalized phosphorylated AKT (relative to actin) levels relative to 0.1 nM compound treatment: Table B2 upper part
Procedure, shortened: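 Phospho-Akt assessed by western blot in serum-depleted (24 h) human colon carcinoma HT-29 cells. Compounds applied for 2 h at 0.1–100 (0.1, 1, 10, 100); vehicle DMSO and 10 ng/mL IGF-1 served as controls. Protein in cleared lysates measured by BCA assay.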

[2] = target: T1, IGF-1R (Homo sapiens, UniProt P08069); assay: In vitro IGF-1R enzymatic assay (ADP-Glo kinase assay); format: biochemical; conditions: activated IGF-1R, 30 nM; for % Inh @ 30 nM (N1) / % Inh @ 30 nM (N2): 0.03 µM
T1 construct: purchased Millipore 14-802
Description: (§1) IC50 values of the compounds of the invention against IGF-1R and IR were measured in vitro using an ADP-Glo kinase assay Kit (Promega). […] Kinase reactions in both assays were conducted at 30° C. for 20 min with increasing concentrations of compounds of the invention.
Additional compounds of the invention were screened against activated IGF-1R.

[3] = target: T2, IR (Homo sapiens, UniProt P06213); assay: In vitro IR enzymatic assay (ADP-Glo kinase assay); format: biochemical; conditions: activated IR, 30 nM; for % Inh @ 30 nM (N1) / % Inh @ 30 nM (N2): 0.03 µM
T2 construct: purchased Millipore 14-803
Description: as §1
Additional compounds of the invention were screened against activated IR.

[4] = N1, read-out: % Inh @ 30 nM (N1)
[5] = N2, read-out: % Inh @ 30 nM (N2)
[6] = average, read-out: % Inh @ 30 nM Avg

T1 sequence (P08069 31-1367): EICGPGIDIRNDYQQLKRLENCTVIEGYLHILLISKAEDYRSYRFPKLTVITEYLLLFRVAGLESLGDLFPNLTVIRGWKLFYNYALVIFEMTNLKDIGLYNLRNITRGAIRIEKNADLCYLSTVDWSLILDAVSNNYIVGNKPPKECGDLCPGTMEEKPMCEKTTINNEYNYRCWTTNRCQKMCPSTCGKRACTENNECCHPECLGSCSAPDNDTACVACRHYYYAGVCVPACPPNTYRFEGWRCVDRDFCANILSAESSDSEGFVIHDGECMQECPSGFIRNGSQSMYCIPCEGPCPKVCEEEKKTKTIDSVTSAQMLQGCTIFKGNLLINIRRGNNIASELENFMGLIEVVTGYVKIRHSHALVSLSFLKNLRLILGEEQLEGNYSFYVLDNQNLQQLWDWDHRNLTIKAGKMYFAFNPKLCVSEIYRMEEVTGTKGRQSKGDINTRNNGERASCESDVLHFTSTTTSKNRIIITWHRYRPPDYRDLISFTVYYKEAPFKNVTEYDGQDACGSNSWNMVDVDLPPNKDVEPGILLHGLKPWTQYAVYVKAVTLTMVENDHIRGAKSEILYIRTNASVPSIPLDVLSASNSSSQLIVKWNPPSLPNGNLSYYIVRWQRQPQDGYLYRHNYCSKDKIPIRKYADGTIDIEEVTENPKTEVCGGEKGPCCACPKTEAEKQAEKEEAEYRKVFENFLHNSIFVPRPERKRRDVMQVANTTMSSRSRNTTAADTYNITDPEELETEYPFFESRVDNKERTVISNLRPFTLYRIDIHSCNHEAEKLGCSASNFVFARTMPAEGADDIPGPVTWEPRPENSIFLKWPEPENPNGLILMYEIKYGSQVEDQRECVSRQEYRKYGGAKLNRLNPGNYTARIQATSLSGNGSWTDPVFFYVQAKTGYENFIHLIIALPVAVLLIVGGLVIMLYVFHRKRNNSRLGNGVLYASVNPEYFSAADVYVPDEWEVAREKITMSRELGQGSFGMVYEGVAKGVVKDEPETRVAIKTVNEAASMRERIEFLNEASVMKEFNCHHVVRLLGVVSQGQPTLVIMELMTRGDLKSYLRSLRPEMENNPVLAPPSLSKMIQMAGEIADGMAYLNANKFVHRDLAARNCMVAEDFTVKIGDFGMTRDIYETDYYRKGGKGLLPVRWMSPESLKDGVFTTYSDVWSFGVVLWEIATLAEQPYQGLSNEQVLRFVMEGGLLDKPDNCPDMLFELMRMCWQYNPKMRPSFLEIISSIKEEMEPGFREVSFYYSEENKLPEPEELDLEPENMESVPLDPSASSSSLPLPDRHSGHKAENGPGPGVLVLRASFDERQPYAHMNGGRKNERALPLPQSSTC
T2 sequence (P06213 28-1382): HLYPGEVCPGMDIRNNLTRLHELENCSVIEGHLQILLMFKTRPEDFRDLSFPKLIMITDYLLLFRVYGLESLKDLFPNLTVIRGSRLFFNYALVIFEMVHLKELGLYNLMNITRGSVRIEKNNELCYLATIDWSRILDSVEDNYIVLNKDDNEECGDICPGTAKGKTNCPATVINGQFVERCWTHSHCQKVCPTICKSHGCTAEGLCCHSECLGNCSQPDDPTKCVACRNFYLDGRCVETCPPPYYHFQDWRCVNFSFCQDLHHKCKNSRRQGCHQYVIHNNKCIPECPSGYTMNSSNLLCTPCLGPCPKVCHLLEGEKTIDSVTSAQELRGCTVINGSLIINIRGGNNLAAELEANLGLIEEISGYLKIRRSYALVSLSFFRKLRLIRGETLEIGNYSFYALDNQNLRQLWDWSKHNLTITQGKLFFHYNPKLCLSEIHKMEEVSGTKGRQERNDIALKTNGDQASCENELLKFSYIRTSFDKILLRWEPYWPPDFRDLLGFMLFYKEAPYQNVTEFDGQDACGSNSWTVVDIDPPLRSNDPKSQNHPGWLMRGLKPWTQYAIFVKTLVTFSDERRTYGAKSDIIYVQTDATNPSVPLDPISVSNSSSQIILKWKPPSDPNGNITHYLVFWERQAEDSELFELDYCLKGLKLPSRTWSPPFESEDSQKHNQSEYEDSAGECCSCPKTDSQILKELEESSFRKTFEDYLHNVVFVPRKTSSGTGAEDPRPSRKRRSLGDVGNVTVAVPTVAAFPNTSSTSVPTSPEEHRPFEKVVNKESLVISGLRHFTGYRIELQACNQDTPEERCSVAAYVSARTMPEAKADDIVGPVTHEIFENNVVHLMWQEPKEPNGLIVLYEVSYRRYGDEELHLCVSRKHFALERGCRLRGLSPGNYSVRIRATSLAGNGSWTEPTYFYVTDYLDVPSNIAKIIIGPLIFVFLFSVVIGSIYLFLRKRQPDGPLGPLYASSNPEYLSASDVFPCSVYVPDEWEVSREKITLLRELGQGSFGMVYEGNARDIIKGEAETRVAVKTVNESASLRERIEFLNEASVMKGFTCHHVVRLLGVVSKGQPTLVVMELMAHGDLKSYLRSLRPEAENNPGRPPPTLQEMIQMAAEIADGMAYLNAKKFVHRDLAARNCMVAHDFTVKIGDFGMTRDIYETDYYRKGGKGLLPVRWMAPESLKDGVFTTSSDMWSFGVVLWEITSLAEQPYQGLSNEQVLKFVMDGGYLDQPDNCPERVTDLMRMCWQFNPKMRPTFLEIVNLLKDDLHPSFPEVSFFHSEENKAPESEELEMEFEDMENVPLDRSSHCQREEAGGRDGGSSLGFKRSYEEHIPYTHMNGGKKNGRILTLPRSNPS

Row | Compound | Levels of phosphorylated AKT in treated cells (pAKT/actin) ([1]; 0.1 nM compound) | p-AKT relative to levels with 0.1 nM compound ([1]; 0.1 nM) | Normalized phosphorylated AKT (relative to actin) levels relative to 0.1 nM compound treatment ([1]; 0.1 nM) | Levels of phosphorylated AKT in treated cells (pAKT/actin) ([1]; 1 nM compound) | p-AKT relative to levels with 0.1 nM compound ([1]; 1 nM) | Normalized phosphorylated AKT (relative to actin) levels relative to 0.1 nM compound treatment ([1]; 1 nM) | Levels of phosphorylated AKT in treated cells (pAKT/actin) ([1]; 10 nM compound) | p-AKT relative to levels with 0.1 nM compound ([1]; 10 nM) | Normalized phosphorylated AKT (relative to actin) levels relative to 0.1 nM compound treatment ([1]; 10 nM) | Levels of phosphorylated AKT in treated cells (pAKT/actin) ([1]; 100 nM compound) | p-AKT relative to levels with 0.1 nM compound ([1]; 100 nM) | Normalized phosphorylated AKT (relative to actin) levels relative to 0.1 nM compound treatment ([1]; 100 nM) | inhibition at 0.03 µM [2, 4] | inhibition at 0.03 µM [2, 5] | inhibition at 0.03 µM [2, 6] | inhibition at 0.03 µM [3, 4] | inhibition at 0.03 µM [3, 5] | inhibition at 0.03 µM [3, 6] | % Inh @ 30 nM (N1) ([2]; N1) | % Inh @ 30 nM (N2) ([2]; N2) | other results
1 | O=C(Nc1ccc(F)nc1)C1CCCN1c1nc2c(c(Nc3cc(C4CC4)[nH]n3)n1)CCC2 (single isomer, unassigned) [Compound 2a, 1-(4-(5-cyclopropyl-1H-pyrazol-3-ylamino)-6,7-dihydro-5H-cyclopenta[d]pyrimidin-2-yl)-N-(6-fluoropyridin-3-yl)pyrrolidine-2-carboxamide] | 1.70 | 1.0 | 1.0 | 1.78 | 1.0 | 1.0 | 1.81 | 1.1 | 1.1 | 1.72 | 1.0 | 1.0 | -12% | 18% | 3% | 0% | 10% | 5% |  |  | 
2 | O=C(Nc1ccc(F)nc1)C1CCCN1c1nc2c(c(Nc3cc(C4CCCC4)[nH]n3)n1)CCC2 (single isomer, unassigned) [Compound 4a, 1-(4-(3-cyclopentyl-1H-pyrazol-5-ylamino)-6,7-dihydro-5H-cyclopenta[d]pyrimidin-2-yl)-N-(6-fluoropyridin-3-yl)pyrrolidine-2-carboxamide] | 2.38 | 1.0 | 1.0 | 1.64 | 0.7 | 0.7 | 1.76 | 0.7 | 0.7 | 1.47 | 0.6 | 0.6 |  |  |  |  |  |  | 4% | 17% | % Inh @ 30 nM Avg ([2]; average): 10%; % Inh @ 30 nM (N1) ([3]; N1): −14%; % Inh @ 30 nM (N2) ([3]; N2): −2%; % Inh @ 30 nM Avg ([3]; average): −8%
3 | O=C(Nc1ccc(F)nc1)C1CCCN1c1nc2c(c(Nc3cc(C4CCCC4)[nH]n3)n1)CCC2 (single isomer, unassigned) [Compound 4b, 1-(4-(3-cyclopentyl-1H-pyrazol-5-ylamino)-6,7-dihydro-5H-cyclopenta[d]pyrimidin-2-yl)-N-(6-fluoropyridin-3-yl)pyrrolidine-2-carboxamide] | 1.81 | 1.0 | 1.0 | 1.92 | 1.1 | 1.1 | 1.64 | 0.9 | 0.9 | 0.20 | 0.1 | 0.1 |  |  |  |  |  |  | 22% | 35% | % Inh @ 30 nM Avg ([2]; average): 28%; % Inh @ 30 nM (N1) ([3]; N1): 41%; % Inh @ 30 nM (N2) ([3]; N2): 33%; % Inh @ 30 nM Avg ([3]; average): 37%
4 | O=C(Nc1cnccn1)C1CCCN1c1nc2c(c(Nc3cc(C4CC4)[nH]n3)n1)CCC2 (single isomer, unassigned) [Compound 6a, 1-(4-(3-cyclopropyl-1H-pyrazol-5-ylamino)-6,7-dihydro-5H-cyclopenta[d]pyrimidin-2-yl)-N-(pyrazin-2-yl)pyrrolidine-2-carboxamide] | 1.85 | 1.0 | 1.0 | 1.74 | 0.9 | 0.9 | 1.40 | 0.8 | 0.8 | 1.17 | 0.6 | 0.6 | 22% | 33% | 28% | -13% | 9% | -2% |  |  | 
5 | O=C(Nc1ccc(F)nc1)C1C(O)CCN1c1nc2c(c(Nc3cc(C4CC4)[nH]n3)n1)CCC2 (single isomer, unassigned) [Compound 11b, 1-(4-(5-cyclopropyl-1H-pyrazol-3-ylamino)-6,7-dihydro-5H-cyclopenta[d]pyrimidin-2-yl)-N-(6-fluoropyridin-3-yl)-3-hydroxypyrrolidine-2-carboxamide] | 1.55 | 1.0 | 1.0 | 1.76 | 1.1 | 1.1 | 1.43 | 0.9 | 0.9 | 0.33 | 0.2 | 0.2 |  |  |  |  |  |  | 22% | 11% | % Inh @ 30 nM Avg ([2]; average): 17%; % Inh @ 30 nM (N1) ([3]; N1): −2%; % Inh @ 30 nM (N2) ([3]; N2): 9%; % Inh @ 30 nM Avg ([3]; average): 3%
6 | CC(C)c1cc(Nc2nc(N3CCCC3C(=O)Nc3ccc(F)nc3)nc3c2CCCC3)n[nH]1 (single isomer, unassigned) [Compound 13a, N-(6-fluoropyridin-3-yl)-1-(4-(5-isopropyl-1H-pyrazol-3-ylamino)-5,6,7,8-tetrahydroquinazolin-2-yl)pyrrolidine-2-carboxamide] | 0.51 | 1.0 | 1.0 | 0.54 | 1.1 | 1.1 | 0.45 | 0.9 | 0.9 | 0.80 | 1.6 | 1.6 | 10% | 34% | 22% | 4% | -1% | 2% |  |  | 
